Experimental data published in patent US9884839B2, “Inhibitors of 17Beta-hydroxysteroid dehydrogenases type 1 and type 2” (ElexoPharm GmbH, priority 2014, dated 2018).
“And” between values parts separate entries of the source, which are not always exact repeats. Equal entries are not always repeated. Where two headings read alike, the source gives them in different places.

How the values were obtained:
human 17β-HSD1 = molecular target: T1, human 17β-HSD1 (Homo sapiens, UniProt P14061); assay: Inhibition of human 17β-HSD1 (conversion of [3H]-E1 to E2, HPLC radioflow detection); type: biochemical; conditions: for inhibition at 0.1 µM: read-out: % inhibition h17β-HSD1 @ 100 nM, compound 100 nM; for IC50: read-out: IC50 [nM] h17β-HSD1
T1 construct: For the partial purification of 17β-HSD1, the cytosolic fraction was precipitated with ammonium sulfate; from tissue; host or cells: human placenta, cytosolic fraction, ammonium sulfate precipitate
T1 sequence (P14061 1-328): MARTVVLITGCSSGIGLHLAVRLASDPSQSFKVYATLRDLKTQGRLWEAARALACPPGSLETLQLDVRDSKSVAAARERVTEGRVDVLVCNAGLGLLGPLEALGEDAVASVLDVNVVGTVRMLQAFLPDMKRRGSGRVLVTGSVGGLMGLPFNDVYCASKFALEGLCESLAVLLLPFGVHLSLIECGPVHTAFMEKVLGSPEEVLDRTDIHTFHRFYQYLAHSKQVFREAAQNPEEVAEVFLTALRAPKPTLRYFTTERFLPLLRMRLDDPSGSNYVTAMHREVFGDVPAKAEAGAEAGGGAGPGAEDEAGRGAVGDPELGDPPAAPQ

human 17β-HSD2 = molecular target: T2, human 17β-HSD2 (Homo sapiens, UniProt P37059); assay: Inhibition of human 17β-HSD2 (conversion of [3H]-E2 to E1); type: biochemical; conditions: for IC50: read-out: IC50 [nM] h17β-HSD2
T2 construct: 17β-HSD2 was obtained from the microsomal fraction; from tissue; host or cells: human placenta, microsomal fraction
T2 sequence (P37059 1-387): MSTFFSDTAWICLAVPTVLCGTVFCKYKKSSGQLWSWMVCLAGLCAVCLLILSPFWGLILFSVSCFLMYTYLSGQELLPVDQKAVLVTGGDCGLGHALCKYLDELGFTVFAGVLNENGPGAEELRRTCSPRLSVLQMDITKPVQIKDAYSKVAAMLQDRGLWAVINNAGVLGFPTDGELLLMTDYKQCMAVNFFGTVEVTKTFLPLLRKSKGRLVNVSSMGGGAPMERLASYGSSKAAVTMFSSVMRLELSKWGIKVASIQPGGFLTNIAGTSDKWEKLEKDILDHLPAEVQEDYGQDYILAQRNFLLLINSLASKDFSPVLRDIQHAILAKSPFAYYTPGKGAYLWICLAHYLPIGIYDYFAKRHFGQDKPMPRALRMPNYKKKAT

mouse 17β-HSD1 = molecular target: T3, mouse 17β-HSD1 (Mus musculus, UniProt P51656); assay: Inhibition of mouse 17β-HSD1 (recombinant, HEK293 lysate); type: biochemical
T3 construct: made in house; host or cells: HEK293 cells, transient transfection; 1,000 g supernatant of the cell lysate
T3 sequence (P51656 1-344): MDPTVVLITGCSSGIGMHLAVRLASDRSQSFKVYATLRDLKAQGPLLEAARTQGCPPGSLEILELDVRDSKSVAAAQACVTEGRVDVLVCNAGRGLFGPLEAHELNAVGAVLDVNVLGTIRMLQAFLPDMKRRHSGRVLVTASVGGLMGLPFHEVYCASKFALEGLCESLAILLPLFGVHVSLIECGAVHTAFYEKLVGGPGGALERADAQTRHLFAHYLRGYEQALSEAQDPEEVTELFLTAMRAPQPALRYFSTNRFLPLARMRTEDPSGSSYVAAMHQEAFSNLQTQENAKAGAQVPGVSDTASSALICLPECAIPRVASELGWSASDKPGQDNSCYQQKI

mouse 17β-HSD2 = molecular target: T4, mouse 17β-HSD2 (Mus musculus, UniProt P51658); assay: Inhibition of mouse 17β-HSD2 (liver microsomal fraction); type: biochemical; conditions: for IC50: read-out: IC50 m17β-HSD2
T4 construct: The pellet fractions containing the microsomal 17β-HSD2 were used for the determination of E1 formation; from tissue; host or cells: mouse liver, microsomal fraction
T4 sequence (P51658 1-381): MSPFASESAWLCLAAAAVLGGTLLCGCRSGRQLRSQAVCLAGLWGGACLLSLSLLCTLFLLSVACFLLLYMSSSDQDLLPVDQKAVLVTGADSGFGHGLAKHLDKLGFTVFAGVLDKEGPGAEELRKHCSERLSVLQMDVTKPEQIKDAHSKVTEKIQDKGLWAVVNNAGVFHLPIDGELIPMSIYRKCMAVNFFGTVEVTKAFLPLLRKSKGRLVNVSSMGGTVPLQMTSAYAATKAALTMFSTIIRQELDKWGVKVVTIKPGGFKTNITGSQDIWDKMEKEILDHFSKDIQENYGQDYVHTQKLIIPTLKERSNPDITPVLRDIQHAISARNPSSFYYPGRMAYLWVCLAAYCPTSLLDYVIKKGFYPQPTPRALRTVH

rat 17β-HSD1 = molecular target: T5, rat 17β-HSD1 (Rattus norvegicus, UniProt P51657); assay: Inhibition of rat 17β-HSD1 (recombinant, HEK293 lysate); type: biochemical; conditions: for inhibition at […] / inhibition at 0.5 µM: read-out: % Inhibition r17β-HSD1; for inhibition at 0.5 µM: Cmpd conc. 500 nM
T5 construct: made in house; host or cells: HEK293 cells, transient transfection; 1,000 g supernatant of the cell lysate
T5 sequence (P51657 1-344): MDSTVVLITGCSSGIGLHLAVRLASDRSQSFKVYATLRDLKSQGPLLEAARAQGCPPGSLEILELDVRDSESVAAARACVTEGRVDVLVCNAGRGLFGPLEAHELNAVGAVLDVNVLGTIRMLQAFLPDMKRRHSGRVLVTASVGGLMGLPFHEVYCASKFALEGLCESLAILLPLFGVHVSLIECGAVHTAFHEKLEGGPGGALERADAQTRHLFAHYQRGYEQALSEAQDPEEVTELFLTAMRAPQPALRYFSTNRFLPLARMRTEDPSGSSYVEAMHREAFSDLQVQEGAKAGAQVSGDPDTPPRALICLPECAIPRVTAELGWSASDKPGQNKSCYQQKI

rat 17β-HSD2 = molecular target: T6, rat 17β-HSD2 (Rattus norvegicus, UniProt Q62730); assay: Inhibition of rat 17β-HSD2 (liver microsomal fraction); type: biochemical; conditions: for inhibition at […] / inhibition at 0.5 µM: read-out: % Inhibition r17β-HSD2
T6 construct: The pellet fractions containing the microsomal 17β-HSD2 were used for the determination of E1 formation; from tissue; host or cells: rat liver, microsomal fraction
T6 sequence (Q62730 1-381): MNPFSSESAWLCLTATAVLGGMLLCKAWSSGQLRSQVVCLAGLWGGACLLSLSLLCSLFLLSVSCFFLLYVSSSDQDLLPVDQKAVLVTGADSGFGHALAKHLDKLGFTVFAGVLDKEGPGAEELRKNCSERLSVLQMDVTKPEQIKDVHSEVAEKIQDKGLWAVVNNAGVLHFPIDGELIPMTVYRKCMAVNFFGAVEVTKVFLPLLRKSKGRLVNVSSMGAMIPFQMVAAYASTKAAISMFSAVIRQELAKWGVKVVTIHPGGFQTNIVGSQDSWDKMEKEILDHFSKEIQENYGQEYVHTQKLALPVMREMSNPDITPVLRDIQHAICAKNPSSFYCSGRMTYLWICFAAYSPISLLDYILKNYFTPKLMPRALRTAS

in vitro = conditions: human, pooled human liver S9 fraction
[1] = human liver S9, 1 mg/mL; unit not given
[2] = read-out: % inhibition m17β-HSD1 @ 1 μM
[3] = read-out: % inhibition m17β-HSD2 @ 1 μM
[4] = human placental cytosolic enzyme, E1 500 nM, NADH, Tables 1, 4-11
[5] = read-out: Inhibition @ 1 μM m17β-HSD1
[6] = read-out: Inhibition @ 1 μM m17β-HSD2
[7] = Tables 4 and 6, no % sign and concentration not given, Table 1 lists these compounds as inhibition @ 1 μM, read-out: IC50 [nM] or % inhibition m17β-HSD1 (bare number, kind not marked)

Row | SMILES | inhibition at 1 µM (mouse 17β-HSD1; [2]) | inhibition at […] (rat 17β-HSD1; Cmpd conc. 250 nM) | inhibition at […] (rat 17β-HSD2) | IC50 (human 17β-HSD1; [4]) | IC50 (human 17β-HSD2) | inhibition at 1 µM (mouse 17β-HSD1; [5]) | inhibition at 1 µM (mouse 17β-HSD2; [6]) | other results
1 | O=C(c1ccc(Br)s1)c1c(F)ccc(O)c1F [Compound 1e, (5-Bromo-thiophen-2-yl)-(2,6-difluoro-3-hydroxy-phenyl)-methanone] | 5% | 5% | 60% |  |  |  |  | inhibition at 0.1 µM (human 17β-HSD1): 85%; inhibition at 0.1 µM (human 17β-HSD2; read-out: IC50 [nM] or % inhibition h17β-HSD1 (second column so headed, Table 9): % @ 100 nM): 71%; inhibition at 1 µM (mouse 17β-HSD2; [3]): 80%
2 | COc1c(C)cc(-c2ccc(C(=O)c3c(F)ccc(O)c3F)s2)cc1C [Compound 16, (2,6-Difluoro-3-hydroxy-phenyl)-[5-(4-methoxy-3,5-dimethyl-phenyl)-thiophen-2-yl]-methanone] |  | 39% | 27% | 0.9 nM | 18 nM | 59% | 55% | half-life at 1 µM (in vitro): 8.5 min; CLint [1]: 81.3
3 | Cc1cc(-c2ccc(C(=O)c3c(F)ccc(O)c3F)s2)cc(C)c1O [Compound 24, (2,6-Difluoro-3-hydroxy-phenyl)-[5-(4-hydroxy-3,5-dimethyl-phenyl)-thiophen-2-yl]-methanone] |  | 63% | 35% |  | 7 nM |  | 76% | IC50 (human 17β-HSD1): 0.4 nM; IC50 (mouse 17β-HSD1; recombinant mouse enzyme, E1 10 nM, NADPH, read-out: IC50 m17β-HSD1): 397 nM; half-life at 1 µM (in vitro): 2.6 min; CLint [1]: 272.7
4 | CC(=O)N1CCN(Cc2cc(-c3ccc(C(=O)c4c(F)ccc(O)c4F)s3)cc(Cl)c2O)CC1 [Compound 29, 1-(4-{3-Chloro-5-[5-(2,6-difluoro-3-hydroxy-benzoyl)-thiophen-2-yl]-2-hydroxy-benzyl}-piperazin-1-yl)-ethanone] |  |  |  |  | 11 nM | 16% | 40% | IC50 (human 17β-HSD1): 2.1 nM; % Inhibition r17β-HSD1 (rat 17β-HSD1; Cmpd conc. 250 nM): n.i.^c; % Inhibition r17β-HSD2 (rat 17β-HSD2): n.i.^c
5 | COc1c(Cl)cc(-c2ccc(C(=O)c3c(F)ccc(O)c3F)s2)cc1CN1CCNCC1 [Compound 30, [5-(3-Chloro-4-methoxy-5-piperazin-1-ylmethyl-phenyl)-thiophen-2-yl]-(2,6-difluoro-3-hydroxy-phenyl)-methanone] |  |  |  | 4.7 nM | 26 nM | 25% | 41% | inhibition at 0.5 µM (rat 17β-HSD1): 51%; inhibition at 0.5 µM (rat 17β-HSD2): 55%; half-life at 1 µM (in vitro): 6.5 min; CLint [1]: 106.8

Further lines, with some results ahead:

Row | inhibition at 1 µM (mouse 17β-HSD1; [2]) | inhibition at […] (rat 17β-HSD1; Cmpd conc. 250 nM) | inhibition at […] (rat 17β-HSD2) | IC50 (human 17β-HSD1; [4]) | IC50 (human 17β-HSD2) | inhibition at 1 µM (mouse 17β-HSD1; [5]) | inhibition at 1 µM (mouse 17β-HSD2; [6]) | SMILES | other results
6 | 18% | 35% | 20% |  |  |  |  | O=C(c1ccc(-c2ccc(F)cc2F)s1)c1cccc(O)c1F [C, reference compound] | inhibition at 0.1 µM (human 17β-HSD1): 92%; inhibition at 0.1 µM (human 17β-HSD2; read-out: % inhibition h17β-HSD2 @ 100 nM): 87%; inhibition at 1 µM (mouse 17β-HSD2; [3]): 75%
7 |  | 26% |  |  |  | 58% | 44% | COc1ccc(-c2ccc(C(=O)c3c(F)ccc(O)c3F)s2)cc1S(=O)(=O)N1CCOCC1 [Compound 19, (2,6-Difluoro-3-hydroxy-phenyl)-{5-[4-methoxy-3-(morpholine-4-sulfonyl)-phen-yl]-thiophen-2-yl}-methanone] | inhibition at 1 µM (human 17β-HSD1; read-out: % inhibition h17β-HSD1 @ 1 μM): 79%; inhibition at 1 µM (human 17β-HSD2; read-out: % inhibition h17β-HSD2 @ 1 μM): 85%; % Inhibition r17β-HSD2 (rat 17β-HSD2): n.i.^c
8 | 50% |  |  | 0.5 nM | 20 nM | 50% | 82% | O=C(c1ccc(-c2ccc(O)c(Cl)c2)s1)c1c(F)ccc(O)c1F [Compound 20, [5-(3-Chloro-4-hydroxy-phenyl)-thiophen-2-yl]-(2,6-difluoro-3-hydroxy-phenyl)-methanone] | inhibition at 1 µM (mouse 17β-HSD2; [3]): 95%; inhibition at 0.5 µM (rat 17β-HSD1): 48%; inhibition at 0.5 µM (rat 17β-HSD2): 98%
9 |  | 46% | 100% | 49 nM | 5 nM | 9% | 80% | Nc1cccc(-c2ccc(C(=O)c3cc(F)c(F)c(O)c3F)s2)c1 [Compound 35, [5-(3-Aminophenyl)thiophen-2-yl](2,4,5-trifluoro-3-hydroxyphenyl)methanone] | inhibition at 1 µM (mouse 17β-HSD1; [7]): 13%; IC50 (mouse 17β-HSD2): 177 nM
10 | 55% | 29% | 93% | 5.8 nM |  | 55% |  | O=C(c1ccc(-c2cccc(NS(=O)(=O)c3ccccc3OC(F)(F)F)c2)s1)c1cc(F)c(F)c(O)c1F [Compound 37, N-{3-[5-(2,4,5-Trifluoro-3-hydroxybenzoyl)thiophen-2-yl]phenyl}-2-trifluoromethoxybenzenesulfonamide] | IC50 (mouse 17β-HSD2): 79 nM and 22 nM
11 |  | 58% | 86% |  | 1.4 nM | 28% |  | O=C(c1ccc(-c2ccc(F)cc2F)s1)c1cc(F)c(F)c(O)c1F [Compound 40, [5-(2,4-Difluoro-phenyl)-thiophen-2-yl]-(2,4,5-trifluoro-3-hydroxy-phenyl)-methanone] | IC50 (human 17β-HSD1): 7.2 nM; inhibition at 1 µM (mouse 17β-HSD1; [7]): 27.5%; IC50 (mouse 17β-HSD2): 326 nM
